Usually melting point stands for the temperature, or range, at which the solid turns liquid.

Take `CS(=O)(=O)c1ccc(-c2nn3c(c2-c2ccc(F)cc2)OCCCC3)cc1` [Example 2, 3-(4-Fluorophenyl)-2-(4-(methylsulphonyl)phenyl)-5,6,7,8-tetrahydropyrazolo[5,1-b][1,3]oxazepine]: the melting point was 167 to 168 °C.
With `CS(=O)(=O)c1ccc(-c2c(-c3ccc(F)cc3)c(=O)n3n2Cc2c(Cl)cccc2-3)cc1` [Example 65, 8-Chloro-2-(4-fluorophenyl)-1-(4-(methylsulphonyl)phenyl)-3H,9H-pyrazolo[1,2-a]indazol-3-one] the figure was 237 to 240 °C.
With `CC=CC(=O)c1oc2c(-c3ccc(F)cc3)c(-c3ccc(S(C)(=O)=O)cc3)nn2c1C` [Example 58, 1-[7-(4-Fluorophenyl)-3-methyl-6-(4-(methylsulphonyl)phenyl)pyrazolo[5,1-b][1,3]oxazol-2-yl]but-2-en-1-one] the figure was 197 to 199 °C.
Turning to `CS(=O)(=O)c1ccc(-c2nn3c(C(F)(F)F)coc3c2-c2ccc(F)cc2)cc1` [Example 50, 7-(4-Fluorophenyl)-6-(4-(methylsulphonyl)phenyl)-3-(trifluoromethyl)pyrazolo[5,1-b][1,3]oxazole], the melting point lay within 186 to 189 °C.
The molecule `CCc1coc2c(-c3ccc(S(C)(=O)=O)cc3)c(-c3ccc(F)cc3)nn12` [Example 76, 6-(4-Fluorophenyl)-7-(4-(methylsulphonyl)phenyl)-3-ethylpyrazolo[5,1-b][1,3]oxazole] returned a melting point of 205 to 208 °C.
With `CS(=O)(=O)c1ccc(-c2nn3c4c(oc3c2-c2ccc(F)cc2)CSCC4)cc1` [Example 53, 3-(4-Fluorophenyl)-2-(4-methylsulfonylphenyl)-7,8-dihydro-5H-pyrazolo[5,1-b]thiopyrano[4,3-d][1,3]oxazole] the figure was 178 to 180 °C.
`Cc1oc2c(-c3ccc(F)cc3)c(-c3ccc(S(C)(=O)=O)cc3)nn2c1C` [Example 48, 7-(4-Fluorophenyl)-6-(4-methylsulfonylphenyl)-2,3-dimethylpyrazolo[5,1-b][1,3]oxazole] displayed a melting point of 158 to 160 °C.
With `CS(=O)(=O)c1ccc(-c2nn3c4c(oc3c2-c2ccc(F)cc2)CCCC4)cc1` [Example 42, 3-(4-Fluorophenyl)-2-(4-(methylsulphonyl)phenyl)-5,6,7,8-tetrahydropyrazolo[5,1-b][1,3]benzoxazole] the figure was 183 to 184 °C; with `CC(C)(C)C(=O)COc1nn(CC#N)c(-c2ccc(S(C)(=O)=O)cc2)c1-c1ccc(F)cc1` [Example 28, 2-[3-(3,3-Dimethyl-2-oxobutoxy)-4-(4-fluorophenyl)-5-(4-(methylsulphonyl)phenyl)-1H-pyrazol-1-yl]acetonitrile], 156 to 159 °C; with `Cc1oc2c(-c3ccc(F)cc3)c(-c3ccc(S(C)(=O)=O)cc3)nn2c1-c1ccccc1` [Example 41, 7-(4-Fluorophenyl)-2-methyl-6-(4-(methylsulphonyl)phenyl)-3-phenylpyrazolo[5,1-b][1,3]oxazole], 234 to 236 °C.
As for `Cc1c(-c2ccc(F)cc2)oc2c(-c3ccc(S(C)(=O)=O)cc3)c(-c3ccc(F)cc3)nn12` [Example 74, 2,6-Bis(4-fluorophenyl)-3-methyl-7-(4-(methylsulphonyl)phenyl)pyrazolo[5,1-b][1,3]oxazole], the figure is 289 to 291 °C; as for `CC(C)(C)c1coc2c(-c3ccc(F)cc3)c(-c3ccc(S(C)(=O)=O)cc3)nn12` [Example 40, 3-(Tert-butyl)-7-(4-fluorophenyl)-6-(4-(methylsulphonyl)phenyl)pyrazolo[5,1-b][1,3]oxazole], 181 to 182 °C.
With `CC(=O)C(C)Oc1nn(C(C)C(C)=O)c(-c2ccc(S(C)(=O)=O)cc2)c1-c1ccc(F)cc1` (stereo not drawn) [Example 17, 3-[4-(4-Fluorophenyl)-5-(4-methylsulfonylphenyl)-3-(1-methyl-2-oxopropoxy)-1H-pyrazol-1-yl]butan-2-one], the melting point lay within 127 to 129 °C.
Take `Cc1oc2c(-c3ccc(F)cc3)c(-c3ccc(S(C)(=O)=O)cc3)nn2c1-c1ccc(Cl)s1` [Example 45, 3-(5-Chloro-2-thienyl)-7-(4-fluorophenyl)-2-methyl-6-(4-(methylsulphonyl)phenyl)pyrazolo[5,1-b][1,3]oxazole]: the melting point is 222 to 223 °C.
`CCn1nc(OCC(=O)C(C)(C)C)c(-c2ccc(S(C)(=O)=O)cc2)c1-c1ccc(F)cc1` [Example 78, 1-[(1-Ethyl-5-(4-fluorophenyl)-4-(4-(methylsulphonyl)phenyl)-1H-pyrazol-3-yl)oxy]-3,3-dimethylbutan-2-one] gave a melting point of 63 to 66 °C.
Turning to `CS(=O)(=O)c1ccc(-c2nn3c(-c4ccccc4)coc3c2-c2ccc(F)cc2)cc1` [Example 37, 7-(4-Fluorophenyl)-6-(4-(methylsulphonyl)phenyl)-3-phenylpyrazolo[5,1-b][1,3]oxazole], the melting point lay within 151 to 154 °C.
As for `CS(=O)(=O)c1ccc(-c2nn3c(-c4ccc(F)cc4)coc3c2-c2ccc(F)cc2)cc1` [Example 36B, 3,7-Bis(4-fluorophenyl)-6-(4-(methylsulphonyl)phenyl)pyrazolo[5,1-b][1,3]oxazole], the figure is 200 to 202 °C.
As to `CS(=O)(=O)c1ccc(-c2nn3c4c(oc3c2-c2ccc(F)cc2)COCC4)cc1` [Example 52, 3-(4-Fluorophenyl)-2-(4-methylsulfonylphenyl)-7,8-dihydro-5H-pyrazolo[5,1-b]pyrano[4,3-d][1,3]oxazole], the melting point lay in the range of 200 to 201 °C.
`CS(=O)(=O)c1ccc(-c2c(-c3ccc(F)cc3)c(OCc3c(F)cccc3Cl)nn2Cc2c(F)cccc2Cl)cc1` [Example 64, 1-(2-Chloro-6-fluorobenzyl)-3-[(2-chloro-6-fluorobenzyl)oxy]-4-(4-fluorophenyl)-5-(4-(methylsulphonyl)phenyl)-1H-pyrazole] yielded a melting point of 195 to 196 °C.
With `CS(=O)(=O)c1ccc(-c2nn3c(c2-c2ccc(F)cc2)OCCC3)cc1` [Example 1, 3-(4-Fluorophenyl)-2-(4-(methylsulphonyl)phenyl)-6,7-dihydro-5H-pyrazolo[5,1-b][1,3]oxazine] the figure was 198 to 200 °C.
With `CC(C)n1nc(OCC(=O)c2ccc(F)cc2)c(-c2ccc(F)cc2)c1-c1ccc(S(C)(=O)=O)cc1` [Example 19, 2-{[4-(4-Fluorophenyl)-5-(4-(methylsulphonyl)phenyl)-1-isopropyl-1H-pyrazol-3-yl]oxy}-1-(4-fluorophenyl)ethan-1-one] the figure was 184 to 185 °C.
As to `Cc1c(C#N)oc2c(-c3ccc(F)cc3)c(-c3ccc(S(N)(=O)=O)cc3)nn12` [Example 59, 6-(4-(Aminosulphonyl)phenyl)-2-cyano-7-(4-Fluorophenyl)-3-methyl-pyrazolo[5,1-b][1,3]oxazole], the melting point was 231 to 232 °C.
As for `CCc1coc2c(-c3ccc(F)cc3)c(-c3ccc(S(C)(=O)=O)cc3)nn12` [Example 61, 3-Ethyl-7-(4-fluorophenyl)-6-(4-(methylsulphonyl)phenyl)pyrazolo[5,1-b][1,3]oxazole], the figure is 177 to 179 °C.
`CCc1coc2c(-c3ccc(F)cc3)c(-c3ccc(S(N)(=O)=O)cc3)nn12` [Example 62, 6-(4-(aminosulphonyl)phenyl)-3-Ethyl-7-(4-fluorophenyl)pyrazolo[5,1-b][1,3]oxazole]: the melting point was 234 to 236 °C.
As for `CS(=O)(=O)c1ccc(-c2c(OCC(=O)c3ccc(F)cc3)nn(CC(=O)c3ccc(F)cc3)c2-c2ccc(F)cc2)cc1` [Example 75, 2-[5-(4-Fluorophenyl)-4-(4-(methylsulphonyl)phenyl)-3-(2-oxo-2-(4-fluorophenyl)ethoxy)-1H-pyrazol-1-yl]-1-(4-fluorophenyl)ethan-1-one], the figure is 191 to 193 °C; as for `Cc1c(C#N)oc2c(-c3ccc(F)cc3)c(-c3ccc(S(C)(=O)=O)cc3)nn12` [Example 54, 2-Cyano-7-(4-fluorophenyl)-3-methyl-6-(4-(methylsulphonyl)phenyl)pyrazolo[5,1-b][1,3]oxazole], 236 to 238 °C; as for `Cc1c(-c2ccc(F)cc2)oc2c(-c3ccc(F)cc3)c(-c3ccc(S(C)(=O)=O)cc3)nn12` [Example 43, 2,7-Bis(4-fluorophenyl)-3-methyl-6-(4-(methylsulphonyl)phenyl)pyrazolo[5,1-b][1,3]oxazole], 257 to 259 °C.
With `CS(=O)(=O)c1ccc(-c2nn3ccoc3c2-c2ccc(F)cc2)cc1` [Example 60, 7-(4-Fluorophenyl)-6-(4-(methylsulphonyl)phenyl)pyrazolo[5,1-b][1,3]oxazole] the figure was 67 to 70 °C.
With `Cc1c(-c2cccc(C(F)(F)F)c2)oc2c(-c3ccc(F)cc3)c(-c3ccc(S(C)(=O)=O)cc3)nn12` [Example 46, 6-(4-(Methylsulphonyl)phenyl)-7-(4-fluorophenyl)-3-methyl-2-[3-(trifluoromethyl)phenyl]pyrazolo[5,1-b][1,3]oxazole] the figure was 194 to 195 °C; with `CS(=O)(=O)c1ccc(-c2nn3c(-c4ccccc4)c(-c4ccccc4)oc3c2-c2ccc(F)cc2)cc1` [Example 38, 7-(4-Fluorophenyl)-6-(4-(methylsulphonyl)phenyl)-2,3-diphenylpyrazolo[5,1-b][1,3]oxazole], 228 to 229 °C; with `Cc1oc2c(-c3ccc(F)cc3)c(-c3ccc(S(C)(=O)=O)cc3)nn2c1-c1cccs1` [Example 44, 7-(4-Fluorophenyl)-3-(2-thienyl)-2-methyl-6-(4-(methylsulphonyl)phenyl)pyrazolo[5,1-b][1,3]oxazole], 240 to 241 °C.
For the molecule `CC(C)(C)C(=O)COc1nn(CC(=O)C(C)(C)C)c(-c2ccc(S(C)(=O)=O)cc2)c1-c1ccc(F)cc1` [Example 25, 1-[3-(3,3-Dimethyl-2-oxobutoxy)-4-(4-fluorophenyl)-5-(4-(methylsulphonyl)phenyl)-1H-pyrazol-1-yl]-3,3-dimethylbutan-2-one], the melting point lay within 180 to 182 °C.
As for `Cc1cc(-c2coc3c(-c4ccc(F)cc4)c(-c4ccc(S(C)(=O)=O)cc4)nn23)ccc1Cl` [Example 47, 3-(4-Chloro-3-methylphenyl)-7-(4-fluorophenyl)-6-(4-(methylsulphonyl)phenyl)pyrazolo[5,1-b][1,3]oxazole], the figure is 202 to 205 °C.
